# PMC9016025, “Translational imaging of the fibroblast activation protein (FAP) using the new ligand [^68Ga]Ga-OncoFAP-DOTAGA” (European Journal of Nuclear Medicine and Molecular Imaging, 2021)
# Like-named read-outs stand apart in the source and are kept apart here.
# How the values were obtained:
# [1] = test system: subcutaneous HT1080 (FAP−) and HT1080-hFAP (FAP+) tumors; test: Gamma counting biodistribution in tumor-bearing mice; assay type: in vivo, mouse
# Method: For tumor-xenograft models, female NMRI nu/nu mice (Janvier, France), 8–9 weeks old, were housed at a constant temperature (22 °C) and relative humidity (40–55%) under a regular light/dark schedule. Food and water were available ad libitum.
# Tumor cells (10^6 cells in 50 μL saline) were implanted subcutaneously in the shoulders of NMRI mice with HT1080 wildtype (FAP^−) in one shoulder and with stably transfected human FAP-expressing HT1080 cells (FAP^+) in the contralateral shoulder. Cells were kindly provided by U. Haberkorn, University of Heidelberg. At day 11 after implantation, mice received whole-body PET/MRI (1 T Mediso nanoScan) imaging with list mode PET for 60 min and additional non-contrast-enhanced anatomic, coronal T1-weighted MRI, followed by late static PET/MRI imaging 180 min p.i. Either ^68Ga-OncoFAP or ^68Ga-FAPI-46 (n = 6 each) was injected into the tail vein with a syringe pump at 1000 μL/min in a volume of 100 μL 30 s after the start of PET. At the next day (day 12 after implantation), the same mice were injected with the respective other FAP-tracer and received identical dynamic PET/MRI for 60 min. […] All involved measuring hardware (dose calibrator ISOMED 2010, automatic γ-counter PERKIN ELMER WALAC 2480, Twilite coincidence detector Swisstrace, PET/MRI) were cross-calibrated for ^68Ga. Overall, 3 scans were rejected, because of extravasation (day 11 OncoFAP), inability of i.v. access (day 12 FAPI-46), and insufficient radioactivity (day 12 FAPI-46), respectively. The resulting injected amounts of radioactivity for the remaining 11 ^68Ga-OncoFAP scans and 10 ^68Ga-FAPI-46 scans were 19.2 ± 4.4 MBq and 18.2 ± 4.8 MBq, respectively.
# [2] = test system: patients with breast cancer; set-up: method as in PMID 34636633; conditions: previously published patient sample, cited from earlier work
# [3] = test system: subcutaneous HT1080 (FAP−) and HT1080-hFAP (FAP+) tumors; test: Dynamic and late static small animal PET/MRI in tumor-bearing mice; assay type: in vivo, mouse
# Method: Tumor cells (10^6 cells in 50 μL saline) were implanted subcutaneously in the shoulders of NMRI mice with HT1080 wildtype (FAP^−) in one shoulder and with stably transfected human FAP-expressing HT1080 cells (FAP^+) in the contralateral shoulder. Cells were kindly provided by U. Haberkorn, University of Heidelberg. At day 11 after implantation, mice received whole-body PET/MRI (1 T Mediso nanoScan) imaging with list mode PET for 60 min and additional non-contrast-enhanced anatomic, coronal T1-weighted MRI, followed by late static PET/MRI imaging 180 min p.i. Either ^68Ga-OncoFAP or ^68Ga-FAPI-46 (n = 6 each) was injected into the tail vein with a syringe pump at 1000 μL/min in a volume of 100 μL 30 s after the start of PET. At the next day (day 12 after implantation), the same mice were injected with the respective other FAP-tracer and received identical dynamic PET/MRI for 60 min. Sixty minutes p.i., mice were sacrificed under deep narcosis and organs and body fluids were harvested, weighed, and γ-counted. All involved measuring hardware (dose calibrator ISOMED 2010, automatic γ-counter PERKIN ELMER WALAC 2480, Twilite coincidence detector Swisstrace, PET/MRI) were cross-calibrated for ^68Ga. Overall, 3 scans were rejected, because of extravasation (day 11 OncoFAP), inability of i.v. access (day 12 FAPI-46), and insufficient radioactivity (day 12 FAPI-46), respectively. The resulting injected amounts of radioactivity for the remaining 11 ^68Ga-OncoFAP scans and 10 ^68Ga-FAPI-46 scans were 19.2 ± 4.4 MBq and 18.2 ± 4.8 MBq, respectively.
# Dynamic PET scans were reconstructed in time frames of 1 × 30 s, 5 × 12 s, 5 × 60 s, 4 × 300 s, 2 × 600 s, and 1 × 810 s. Frames 12 and 18 and the late scan are referred to as (rounded) 10 min, 1 h, and 3 h throughout the manuscript. Volume of interests (VOI) of tumors and representative organs were defined on anatomic MRI. Resulting tumor volumes for ^68Ga-OncoFAP scans for FAP^+ and FAP^− tumors were 0.4 ± 0.36 and 0.22 ± 0.15, and for FAPI-46 scans were 0.34 ± 0.20 and 0.2 ± 0.17 (n.s. different between the two tracers).
smiles,measurement,setting,value
"CN(CCCN1CCN(C(=O)CN2CCN(CC(=O)[O-])CCN(CC(=O)[O-])CCN(CC(=O)[O-])CC2)CC1)c1ccc2nccc(C(=O)NCC(=O)N3CC(F)(F)C[C@H]3C#N)c2c1.[68Ga+3] [^68Ga-FAPI-46, [^68Ga]Ga-FAPI-46]",organ-to-blood ratio brain,[1]; gamma counting 1 h p.i.,0.06 ± 0.01
same,organ-to-blood ratio heart,[1]; gamma counting 1 h p.i.,0.36 ± 0.04
same,organ-to-blood ratio kidney,[1]; gamma counting 1 h p.i.,11.58 ± 8.84
same,organ-to-blood ratio liver,[1]; gamma counting 1 h p.i.,0.70 ± 0.23
same,organ-to-blood ratio lung,[1]; gamma counting 1 h p.i.,1.84 ± 1.04
same,organ-to-blood ratio muscle,[1]; gamma counting 1 h p.i.,0.31 ± 0.11
same,organ-to-blood ratio spleen,[1]; gamma counting 1 h p.i.,0.43 ± 0.06
same,organ-to-blood ratio tumor FAP+ (tumor-to-blood ratio),[1]; gamma counting 1 h p.i.,1.98 ± 0.92
same,organ-to-blood ratio tumor FAP-,[1]; gamma counting 1 h p.i.,0.55 ± 0.08
same,uptake blood,[1]; gamma counting 1 h p.i.,0.69 ± 0.15 % ID/g
same,uptake heart,[1]; gamma counting 1 h p.i.,0.25 ± 0.07 % ID/g
same,uptake kidney,[1]; gamma counting 1 h p.i.,8.58 ± 7.52 % ID/g
same,uptake liver,[1]; gamma counting 1 h p.i.,0.46 ± 0.06 % ID/g
same,uptake lung,[1]; gamma counting 1 h p.i.,1.17 ± 0.43 % ID/g
same,uptake muscle,[1]; gamma counting 1 h p.i.,0.21 ± 0.07 % ID/g
same,uptake plasma,[1]; gamma counting 1 h p.i.,1.02 ± 0.30 % ID/g
same,uptake spleen,[1]; gamma counting 1 h p.i.,0.29 ± 0.05 % ID/g
same,uptake tumor FAP+,[1]; gamma counting 1 h p.i.,1.28 ± 0.40 % ID/g
same,uptake tumor FAP-,[1]; gamma counting 1 h p.i.,0.38 ± 0.12 % ID/g
same,uptake urine,[1]; gamma counting 1 h p.i.,525.55 ± 279.13 % ID/g
same,organ-to-blood ratio brain,[1]; gamma counting 3 h p.i.,0.15 ± 0.10
same,organ-to-blood ratio heart,[1]; gamma counting 3 h p.i.,0.51 ± 0.23
same,organ-to-blood ratio kidney,[1]; gamma counting 3 h p.i.,10.39 ± 5.81
same,organ-to-blood ratio liver,[1]; gamma counting 3 h p.i.,1.73 ± 1.28
same,organ-to-blood ratio lung,[1]; gamma counting 3 h p.i.,2.27 ± 1.98
same,organ-to-blood ratio muscle,[1]; gamma counting 3 h p.i.,0.38 ± 0.26
same,organ-to-blood ratio spleen,[1]; gamma counting 3 h p.i.,0.78 ± 0.47
same,organ-to-blood ratio tumor FAP+ (tumor-to-blood ratio),[1]; gamma counting 3 h p.i.,28.62 ± 17.69
same,organ-to-blood ratio tumor FAP-,[1]; gamma counting 3 h p.i.,1.15 ± 0.67
same,uptake blood,[1]; gamma counting 3 h p.i.,0.22 ± 0.31 % ID/g
same,uptake brain,[1]; gamma counting 3 h p.i.,0.01 ± 0.00 % ID/g
same,uptake heart,[1]; gamma counting 3 h p.i.,0.05 ± 0.02 % ID/g
same,uptake kidney,[1]; gamma counting 3 h p.i.,0.98 ± 0.60 % ID/g
same,uptake liver,[1]; gamma counting 3 h p.i.,0.14 ± 0.03 % ID/g
same,uptake lung,[1]; gamma counting 3 h p.i.,0.17 ± 0.06 % ID/g
same,uptake muscle,[1]; gamma counting 3 h p.i.,0.04 ± 0.02 % ID/g
same,uptake plasma,[1]; gamma counting 3 h p.i.,0.38 ± 0.53 % ID/g
same,uptake spleen,[1]; gamma counting 3 h p.i.,0.07 ± 0.02 % ID/g
same,uptake tumor FAP+,[1]; gamma counting 3 h p.i.,2.64 ± 0.60 % ID/g
same,uptake tumor FAP-,[1]; gamma counting 3 h p.i.,0.11 ± 0.03 % ID/g
same,Blood (prone SUVmean),[2],1.7 ± 0.2
same,Blood (supine SUVmean),[2],1.3 ± 0.3
same,Bone (supine SUVmean),[2],0.4 ± 0.1
same,Breast cancer LN metastasis (supine SUVmax),[2],12.2 ± 6.2 (n = 13)
same,Distant metastases any cancer (supine SUVmax),[2],12.3 ± 0.2 (n = 2)
same,Kidney (supine SUVmean),[2],1.5 ± 0.4
same,Liver (supine SUVmean),[2],0.9 ± 0.3
same,Muscle (supine SUVmean),[2],1.1 ± 0.2
same,Pancreas (supine SUVmean),[2],1.1 ± 0.4
same,Primary breast cancer (prone SUVmax),[2],14.0 ± 5.7 (n = 17)
same,Spleen (supine SUVmean),[2],1.1 ± 0.8
same,Uterus (supine SUVmax),[2],11.6 ± 4.5 (n = 18)
same,Uterus (supine SUVmax),[2]; listed as FAPI-46,11.6 ± 4.5
same,SUVmean blood,[3]; small animal PET 10 min p.i.,0.52 ± 0.09
same,SUVmean kidney,[3]; small animal PET 10 min p.i.,1.43 ± 0.88
same,SUVmean liver,[3]; small animal PET 10 min p.i.,0.57 ± 0.17
same,SUVmean muscle,[3]; small animal PET 10 min p.i.,0.35 ± 0.07
same,SUVmean spleen,[3]; small animal PET 10 min p.i.,0.40 ± 0.19
same,SUVmean tumor FAP+,[3]; small animal PET 10 min p.i.,0.40 ± 0.07
same,SUVmean tumor FAP-,[3]; small animal PET 10 min p.i.,0.39 ± 0.07
same,SUVmean blood,[3]; small animal PET 1 h p.i.,0.19 ± 0.07
same,SUVmean kidney,[3]; small animal PET 1 h p.i.,0.54 ± 0.54
same,SUVmean liver,[3]; small animal PET 1 h p.i.,0.28 ± 0.16
same,SUVmean muscle,[3]; small animal PET 1 h p.i.,0.08 ± 0.04
same,SUVmean spleen,[3]; small animal PET 1 h p.i.,0.15 ± 0.07
same,SUVmean tumor FAP+,[3]; small animal PET 1 h p.i.,0.25 ± 0.06
same,SUVmean tumor FAP-,[3]; small animal PET 1 h p.i.,0.10 ± 0.05
same,SUVmean kidney,[3]; small animal PET 3 h p.i.,0.07 ± 0.02
same,SUVmean liver,[3]; small animal PET 3 h p.i.,0.28 ± 0.19
same,SUVmean muscle,[3]; small animal PET 3 h p.i.,0.02 ± 0.00
same,SUVmean spleen,[3]; small animal PET 3 h p.i.,0.09 ± 0.06
same,SUVmean tumor FAP+,[3]; small animal PET 3 h p.i.,0.16 ± 0.06
same,SUVmean tumor FAP-,[3]; small animal PET 3 h p.i.,0.02 ± 0.01
